Read-outs that look alike come from different tables or passages of the source.
Tests used:
Colo205 [1] = assay: MTT cytotoxicity assay, Colo205; format: cell-based; conditions: Homo sapiens, COLO 205, 72 h of exposure
Description: (§1) The in vitro cytotoxicity of the TSCs HL^1–HL^3, copper(II) complexes Cu(HL^1)Cl2, [Cu(L^2)Cl], and Cu(HL^3)Cl2, and oxidized TSCs HL^1a′, HL^1a″, and HL^2c′·CH3COOH was tested in the doxorubicin-sensitive Colo205 and the multidrug-resistant Colo320 human colonic adenocarcinoma cell lines as well as in normal human embryonal lung fibroblast cells (MRC-5) by the colorimetric MTT assay. […]
(§2) 2.5. In vitro cell studies
(§3) 2.5.1. Cell lines and culture conditions
(§4) All cell culture reagents were obtained from Sigma-Aldrich and plastic ware from Sarstedt
(§5) (Germany). Doxorubicin-sensitive human colonic Colo 205 and multidrug resistant
(§6) Colo 320/MDR-LRP adenocarcinoma cell lines were purchased from LGC Promochem,
(§7) Teddington, UK. The cells were cultured in Roswell Park Memorial Institute (RPMI) 1640
(§8) medium supplemented with 10% heat-inactivated fetal bovine serum, 2 mM L-glutamine, 1 mM
(§9) Na-pyruvate and 100 mM Hepes. The cell lines were incubated at 37°C, in a 5% CO2, 95% air
(§10) MRC-5 human embryonal lung fibroblast cell line (ATCC CCL-171) was purchased from LGC
(§11) Promochem, Teddington, UK. The cell line was cultured in Eagle’s Minimal Essential Medi um
(§12) (EMEM, containing 4.5 g/L glucose) supplemented with a non-essential amino acid mixture, a
(§13) selection of vitamins and 10% heat-inactivated fetal bovine serum. The cells were incubated at
(§14) 37°C, in a 5% CO2, 95% air atmosphere. All cell lines were detached with Trypsin-Versene
(§15) (EDTA) solution for 5 min at 37 °C.
(§16) The tested compounds were dissolved in DMSO using 10 mM concentration. Then stock solutions
(§17) were diluted in complete culture medium in 96-well microtiter plates, and two-fold serial dilutions
(§18) of compounds were prepared in 100 µL of RPMI 1640, horizontally. The semi-adherent colonic
(§19) adenocarcinoma cells were treated with Trypsin -Versene (EDTA) solution. They were adjusted to
(§20) a density of 1×10^4 cells in 100 µL of RPMI 1640 medium, and were added to each well, with the
(§21) exception of the medium control wells. The final volume of the wells containing compounds and
(§22) cells was 200 µL. The culture were incubated at 37 °C for 72 h; at the end of the incubation period,
(§23) 20 µL of MTT solution (from a stock solution of 5 mg/mL) were added to each well. After
(§24) incubation at 37 °C for 4 h, 100 µL of SDS solution (10% in 0.01 M HCI) were added to each well
(§25) and the plates were further incubated at 37 °C overnight. The cell growth was determined using
(§26) both methods by measuring the optical density (OD) at 450 nm (ref. 620 nm) with a Multiscan EX
(§27) ELISA reader. Inhibition of the cell growth (expressed as IC 50: inhibitory concentration that
(§28) reduces by 50% the growth of the cells exposed to the tested compounds) was determined from
(§29) the sigmoid curve where 100 – ((ODsample ‒ ODmedium control)/(ODcell control ‒ ODmedium control)) × 100
(§30) values were plotted against the logarithm of compound concentrations. […]
(§31) 0.76 tyrosyl radical/polypeptide. Samples containing 20 µM mR2 in 50 mM HEPES buffer, pH
(§32) 7.50/100 mM NaCl, and 20 µM respective compound in 1% (v/v) DMSO/H2O, and 2 mM

Colo320 [2] = assay: MTT cytotoxicity assay, Colo320; format: cell-based; conditions: Homo sapiens, COLO 320, 72 h of exposure
Description: as §1, §2, §3, §4, §5, §6, §7, §8, §9, §10, §11, §12, §13, §14, §15, §16, §17, §18, §19, §20, §21, §22, §23, §24, §25, §26, §27, §28, §29, §30, §31, §32

mouse R2 RNR protein = biological target: T1, mouse R2 RNR protein (Mus musculus, UniProt P11157); assay: Tyrosyl radical reduction in mouse R2 RNR protein (EPR); format: biochemical; conditions: equimolar 20 μM compound and mR2; 2 mM DTT
T1 construct: made in house
T1 sequence (P11157 1-390): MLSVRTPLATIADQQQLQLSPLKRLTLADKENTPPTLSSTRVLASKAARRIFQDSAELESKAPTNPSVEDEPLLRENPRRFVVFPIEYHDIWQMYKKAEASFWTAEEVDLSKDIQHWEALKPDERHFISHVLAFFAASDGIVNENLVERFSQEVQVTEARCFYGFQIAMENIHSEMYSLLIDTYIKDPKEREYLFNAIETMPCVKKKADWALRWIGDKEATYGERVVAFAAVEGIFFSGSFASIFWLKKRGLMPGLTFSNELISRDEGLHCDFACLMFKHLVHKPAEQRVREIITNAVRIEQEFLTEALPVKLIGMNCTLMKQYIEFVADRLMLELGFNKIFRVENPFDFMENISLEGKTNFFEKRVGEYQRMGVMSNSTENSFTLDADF
Description: The time-dependent tyrosyl radical reduction in mR2 RNR by equimolar concentrations of TSCs and their respective copper(II) complexes, under reducing conditions, is shown in Figure 15. […] The favorable impact of the copper(II) coordination on the HL^2 inhibitory activity is quite obvious, when the ability to quench the tyrosyl radical by HL^2 is compared to that of 2′.
The samples contained 20 μM mR2 in 50 mM HEPES buffer, pH 7.60/100 mM KCl, 20 μM compound in 1% (v/v) DMSO/H2O, and 2 mM DTT. […]
2.6. Tyrosyl radical reduction in mouse R2 RNR protein
The tyrosyl radical reduction in mR2 protein by HL1, HL2, HL3, Cu(HL1)Cl2, [Cu(L2)Cl],
Cu(HL3)Cl2, HL1a’, HL1a’’, and HL2c´·CH3COOH was measured by EPR spectroscopy at 30 K,
on a Bruker Elexsys II E540 EPR spectrometer with an Oxford Instruments ER 4112HV helium
cryostat, as described previously.12,13 mR2 protein was expressed, purified, and iron -reconstituted
as described previously, 14 and passed through a 5 mL HiTrap desalting column (GE Healthcare)
as §31, §32
dithiothreitol (DTT) were incubated for indicated times and quickly frozen in cold isopentane. The
same samples were used for repeated incubations at room temperature. […]
Furthermore, the intrinsic reaction coordinate (IRC) analysis was
performed to authenticate that the transition state pertains to the desired reaction coordinate. The
IRC calculations were done at the B3LYP/6-311++G(d,p) level of theory. Molecular orbitals were
drawn using Molekel software.17
3. Schemes for assignment of resonances in HL1 – HL3 and their isomers
Scheme S1. The atom numbering for the assignment of resonances in HL1 – HL3.
(1 picture or pasted object on this page, not shown here)

[3] = tested on: SW480, MES-SA, MES-SA/Dx5, HL60, 41M, SK-BR-3; parameters: method as in PMID 32336116, PMID 22189939, PMID 31250199; conditions: several human cancer cells; ref [36],[58],[80]; read-out: IC50 values reported; cited from earlier work
[4] = cited from earlier work
Colo205 [5] = tested on: Colo205; parameters: method as in doi:10.1039/D0NJ01070G; conditions: 72 h of exposure; ref [77]; cited from earlier work
Colo320 [6] = tested on: Colo320; parameters: method as in doi:10.1039/D0NJ01070G; conditions: 72 h of exposure; ref [77]; cited from earlier work
MRC-5 = tested on: MRC-5; parameters: method as in doi:10.1039/D0NJ01070G; conditions: 72 h of exposure; ref [77]; cited from earlier work
Colo320 cells = assay: Annexin-V-FITC/PI apoptosis induction assay (flow cytometry); format: cell-based, human; conditions: 3 h induction
Description: To gain further insights into the cytotoxic behavior of the compounds, apoptosis induction by lead compounds HL^1 and [Cu(L^2)Cl] was investigated by a flow cytometry analysis of multidrug-resistant Colo320 cells stained with Annexin-V-FITC and propidium iodide (PI).
Colo320 cells were treated at the indicated concentration of the drugs. The dual parametric dot plots that combine the Annexin-V (FL1) and PI (FL3) fluorescence show the viable cell population in the lower-left quadrant Annexin-V–/PI– (Q4), the early apoptotic cells in the lower-right quadrant Annexin-V+/PI– (Q3), and the late apoptotic and necrotic cells in the upper-right quadrant Annexin-V+/PI+ (Q2). […]
2.5.3. Mechanisms of cell death: assay for apoptosis induction
The assay was carried out for selected compounds using an Annexin V-FITC Apoptosis Detection
Kit (Cat. No. APOAF-50TST) from Sigma according to the manufacturer's instructions. The
concentration of the Colo320 cell suspension was adjusted to approximately 0.5 × 10^6 cells per
mL in RPMI medium and the cell suspension was distributed in 1 mL aliquots into a 24-well plate,
and then incubated overnight at 37 °C and 5% CO2. On the following day, the medium was
removed and replaced by 1 mL RPMI medium containing the compounds except the control
samples. Colo320 cells were incubated in the presence of the compounds at 4 and 8 μM (HL1), or
0.25 and 0.50 μM (Cu(HL2)Cl2) in the 24-well plate at 37 °C for 3 h, and 12H-
controls. After the incubation period the samples were washed with PBS and fresh RPMI medium
was added to the samples. The cells were incubated overnight at 37 °C and 5% CO2. The next day,
200 μL 0.25% Trypsin (Trypsin-Versen) was added to the samples until cells appeared detached
followed by the addition of 400 μL of RPMI medium supplemented with 10% bovine serum. The
cells were collected in Eppendorf tubes and centrifuged at 2000 g for 2 min. The harvested cells
were resuspended in fresh serum free RPMI medium culture medium. After this step, the apoptosis
assay was carried out according to the instructions of the manufacturer. The fluorescence was
analyzed immediately using a ParTec CyFlow flow cytometer (Partec GmbH, Münster, Germany). […]

NC(=S)N/N=C/c1ncccc1N [triapine, 3-aminopyridine-2-carboxaldehyde TSC, reference compound]
IC50 (Colo205 [1]): 3.34 ± 0.12 µM
IC50 (Colo320 [2]): 4.21 ± 0.46 µM
mR2 inhibition potency order (mouse R2 RNR protein): HL^1 ≈ triapine > HL^3 > HL^2
IC50 [3]: 0.4 to 2.6 µM
log D7.4 ([4]; pH 7.4): +0.85

[Cl][Cu][Cl] [CuCl2, copper(II) chloride]
IC50 (Colo205 [5]): 19.7 µM
IC50 (Colo320 [6]): 20 µM
IC50 (MRC-5): 24.5 µM

c1ccc2c(c1)Nc1c(ccc3ccccc13)S2 [M627, 12H-Benzophenothiazine, reference compound]
Cell death % Q1 (Colo320 cells; 10 µM): 4.59%
Early apoptosis % Q3 (Colo320 cells; 10 µM): 12.4%
Late apoptosis and necrosis % Q2 (Colo320 cells; 10 µM): 31.5%
Cell death % Q1 (Colo320 cells; 20 µM): 7.85%
Early apoptosis % Q3 (Colo320 cells; 20 µM): 11.1%
Late apoptosis and necrosis % Q2 (Colo320 cells; 20 µM): 26.1%

NC(=S)NN=Cc1ccccn1 [FTSC, 2-formylpyridine TSC]
IC50 [3]: 1.9 to 10.6 µM
log D7.4 ([4]; ref [67]): +0.73

COc1cccc2c1C(=O)c1c(O)c3c(c(O)c1C2=O)C[C@@](O)(C(=O)CO)C[C@@H]3O[C@H]1C[C@H](N)[C@H](O)[C@H](C)O1 [doxorubicin]
IC50 (Colo205 [5]): 3.28 µM
IC50 (Colo320 [6]): 3.12 µM

N.N.[Cl][Pt][Cl] [cisplatin, reference compound]
Cell death % Q1 (Colo320 cells; 15 µM): 1.64%
Early apoptosis % Q3 (Colo320 cells; 15 µM): 1.68%
Late apoptosis and necrosis % Q2 (Colo320 cells; 15 µM): 2.24%
Cell death % Q1 (Colo320 cells; 30 µM): 0.79%
Early apoptosis % Q3 (Colo320 cells; 30 µM): 4.90%
Late apoptosis and necrosis % Q2 (Colo320 cells; 30 µM): 4.07%

— publication PMC8335727 (Inorganic Chemistry, 2021)
